Experimental data: patent US20240010726A1, “LFA-1 SIGNALLING MEDIATOR FOR USE IN CANCER THERAPY” (Universität Basel, priority 2020, published 2024)

Legend:
human EM CD8 T cells = assay: Metabolic flux analysis, glycolytic switch of EM CD8 T cells; type: cell-based
Experimental: FIG. 2: Extracellular magnesium promotes memory-specific activation via LFA-1. Glycolytic switch of human EM CD8 T cells (a) and naïve CD8 T cells (b) subsets upon injection of anti-CD3 Ab only, or anti-CD3 and anti-CD28 Ab, was assessed by metabolic flux analysis in medium containing either 1.2 mM Mg^2+, 0 mM Mg^2+, or medium which was reconstituted from 0 mM to 1.2 mM Mg^2+ immediately prior to activation (0→1.2 mM Mg^2+). (a) Results for human effector memory (EM) and (b) for human naïve CD8 T cells. Glycolytic switch was quantified by subtracting […] measurements. (c) Flow cytometric analysis of surface activation markers on human EM CD8 T cells 24 hours after activation by plate-bound anti-CD3 Ab and soluble anti-CD28 Ab, in 1.2 mM and 0 mM Mg^2+ media, respectively. (d) Abundance of inflammatory cytokines in corresponding EM CD8 T cell culture supernatants, determined by CBA. (e) CD11a (LFA-1) surface expression on human naïve and EM CD8 T cells as well PHA T cell blasts. Flow cytometry-based assessment of total LFA-1 expression assessed by mAb TS2/4 (f), closed conformation of αL by mAb HI111 (g), extended conformation of LFA-1 by mAb Kim127 (h), open head-piece conformation of LFA-1 by mAb m24 (i), phosphorylation of focal adhesion kinase (FAK) […] as well TNF expression (k)±TCR-induced activation in different extracellular Mg^2+ concentrations. (l) Flow cytometry-based assessment of LFA-1 with open-head piece conformation on human EM and naïve CD8 T cells using the open head-piece reporter mAb m24. (m) Assessment of glycolytic switch of EM CD8 T cells. (n) Assessment of glycolytic switch of naïve CD8 T cells. […] FIG. 4: […] Pooled results from n=6 healthy donors from 3 independent experiments. (b) CD69 expression of PHA T cell blasts upon activation with indicated concentrations of plate-bound anti-CD3 mAb in ±Mg^2+ containing medium. […] Cytotoxicity was quantified after adding luciferin to medium and measuring luminescent signal intensity. […] Cytotoxicity was quantified after adding luciferin to medium and measuring luminescent signal intensity. […]

LFA-1 = molecular target: T1, LFA-1 (Homo sapiens, UniProt P05107+P20701); assay: LFA-1 conformations on REP T cells co-incubated with peptide-pulsed T2 target cells; type: cell-based; conditions: T2 cells pulsed with 10^−8 M 9c peptide; E:T 1:1; presence vs absence of extracellular Mg^2+
T1 construct: endogenous in cells; host or cells: primary human T cells from healthy donors: PHA-induced T cell blasts, sorted EM and naive CD8 T cells, and NY-ESO-1 TCR-transduced REP T cells
T1 sequence (P20701 26-1170): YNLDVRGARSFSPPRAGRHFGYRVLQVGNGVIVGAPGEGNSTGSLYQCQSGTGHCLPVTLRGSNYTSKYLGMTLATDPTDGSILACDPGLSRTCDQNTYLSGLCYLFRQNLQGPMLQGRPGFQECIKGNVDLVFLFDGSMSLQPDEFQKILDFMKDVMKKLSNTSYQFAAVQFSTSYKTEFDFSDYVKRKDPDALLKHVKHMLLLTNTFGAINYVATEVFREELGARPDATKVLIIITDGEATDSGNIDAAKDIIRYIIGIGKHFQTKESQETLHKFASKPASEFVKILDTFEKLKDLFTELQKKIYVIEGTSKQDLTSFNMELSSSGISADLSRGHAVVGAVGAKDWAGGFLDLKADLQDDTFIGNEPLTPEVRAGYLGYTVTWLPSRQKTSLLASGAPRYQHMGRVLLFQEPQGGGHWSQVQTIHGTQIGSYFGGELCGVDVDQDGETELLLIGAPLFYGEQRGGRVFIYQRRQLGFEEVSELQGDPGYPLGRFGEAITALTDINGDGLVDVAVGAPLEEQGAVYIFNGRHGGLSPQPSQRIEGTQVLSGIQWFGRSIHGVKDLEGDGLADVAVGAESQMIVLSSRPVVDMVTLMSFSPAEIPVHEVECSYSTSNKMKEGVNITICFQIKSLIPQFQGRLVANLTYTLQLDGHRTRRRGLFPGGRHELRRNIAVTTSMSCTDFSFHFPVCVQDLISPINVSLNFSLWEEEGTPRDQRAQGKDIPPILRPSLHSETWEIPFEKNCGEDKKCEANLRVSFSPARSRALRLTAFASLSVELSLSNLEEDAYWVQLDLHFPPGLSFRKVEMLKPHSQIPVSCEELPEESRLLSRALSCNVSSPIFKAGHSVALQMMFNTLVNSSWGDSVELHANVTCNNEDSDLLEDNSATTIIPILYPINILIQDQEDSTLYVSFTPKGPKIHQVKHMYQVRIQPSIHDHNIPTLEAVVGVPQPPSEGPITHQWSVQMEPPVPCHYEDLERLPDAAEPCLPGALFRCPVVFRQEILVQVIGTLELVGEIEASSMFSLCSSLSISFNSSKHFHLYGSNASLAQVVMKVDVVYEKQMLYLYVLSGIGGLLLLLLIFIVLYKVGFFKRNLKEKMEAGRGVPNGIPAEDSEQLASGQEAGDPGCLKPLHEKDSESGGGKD
T1 sequence (P05107 23-769): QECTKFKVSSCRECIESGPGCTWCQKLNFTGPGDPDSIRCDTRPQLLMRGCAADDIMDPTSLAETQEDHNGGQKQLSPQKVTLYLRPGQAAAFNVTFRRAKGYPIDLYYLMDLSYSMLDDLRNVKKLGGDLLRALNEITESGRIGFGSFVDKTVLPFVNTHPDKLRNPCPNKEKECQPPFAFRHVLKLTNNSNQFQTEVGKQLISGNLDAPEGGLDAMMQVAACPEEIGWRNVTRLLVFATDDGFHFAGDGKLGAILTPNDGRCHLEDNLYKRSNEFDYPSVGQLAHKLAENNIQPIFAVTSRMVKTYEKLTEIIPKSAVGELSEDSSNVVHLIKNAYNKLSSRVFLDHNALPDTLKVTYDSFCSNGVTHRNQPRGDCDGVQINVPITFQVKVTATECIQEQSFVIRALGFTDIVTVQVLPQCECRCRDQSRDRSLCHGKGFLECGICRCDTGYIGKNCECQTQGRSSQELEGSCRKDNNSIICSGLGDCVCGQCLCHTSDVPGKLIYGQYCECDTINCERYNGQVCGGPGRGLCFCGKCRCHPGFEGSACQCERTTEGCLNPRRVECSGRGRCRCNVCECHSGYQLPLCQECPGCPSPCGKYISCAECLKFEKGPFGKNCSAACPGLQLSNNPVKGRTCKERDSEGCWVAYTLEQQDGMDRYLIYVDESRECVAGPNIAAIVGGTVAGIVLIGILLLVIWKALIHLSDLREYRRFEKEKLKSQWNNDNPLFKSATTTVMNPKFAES
Experimental: FIG. 3: Magnesium regulates LFA-1 mediated T cell activation and cytotoxicity as well BiTE- and CAR T-cell functionality. (a) Glycolytic switch of murine WT and LFA-1^-/- CTLs upon injection of anti-CD3/28 Ab in medium containing 1.2 mM Mg^2+ and 0 mM Mg^2+, presented as quantification of summarized data with n=4 mice. (b) Calcium flux in WT and LFA-1^-/- Jurkat T cells stimulated with anti-CD3 Ab in 1.2 mM and 0 mM Mg^2+ medium, respectively. Cells were loaded with Fluo4, and signal intensity as recorded by plate reader, was normalized to unstimulated baseline values. […] Quantified results of n=3 mice with 3 technical replicates each. […] The effector to target cell ratio was 3:1. Results are quantified of n=3 mice with 3 technical replicates each. (e) Representative CD11a (LFA-1) surface expression on human naïve and EM CD8 T cells, PHA T cell blasts and REP T cells, assessed by flow cytometry. […] The effector to target cell ratio was 1:1. Data is presented as quantified results of n=5 healthy donors (f, g, h), n=3 healthy donors with 2 technical replicates each or n=1 healthy donor with 4 technical replicates (j). […] The effector to target cell ratio was 1:1. Data is presented as quantified results of n=1 healthy donor with 4 technical replicates. […] (n) Representative histogram of CD11a expression on PHA-blasts, untransduced T cells as well anti-CD19 expressing CAR T cells. […] Pooled results of n=6 from 2 independent experiments are shown. (p) Abundance of IFNγ in cell culture supernatants corresponding to the conditions depicted in (o) at 24 hours was determined by ELISA (n=8, 3 independent experiments). (q) Tumor growth curves of mice placed on either Mg^2+-depleted diet or respective control diet and treated with either anti-PSMA CAR T cells, untransduced T cells or saline solution. Representative of n=2 independent experiments with n=6 mice per group. REP […] target cells in flat bottom 96 well-plate, if not indicated otherwise, at a 1:1 ratio (4-6×10^4 each). Optimal ratio had been titrated for each donor beforehand. […]

T2 target cells = type: cell-based, human

[Mg+2] [Mg^2+, Magnesium]
Glycolytic switch of EM CD8^+ T cells upon supra-physiologic activation (human EM CD8 T cells; anti-CD3/anti-CD28 Ab plus secondary cross-linking Ab, 0 mM, 1.2 mM, 0→1.2 mM Mg^2+): lost
Glycolytic switch (ECAR) of EM CD8 T cells (human EM CD8 T cells; anti-CD3 or anti-CD3/anti-CD28 Ab, 0 mM vs 1.2 mM Mg^2+): blunted
Glycolytic switch (ECAR) of EM CD8 T cells after Mg^2+ add-back (human EM CD8 T cells; medium reconstituted 0→1.2 mM Mg^2+ immediately prior to activation): fully revertible
Extended LFA-1 conformation on REP T cells (LFA-1): significant increase of extended LFA-1
Inactive LFA-1 with bent conformation on REP T cells (LFA-1): reduced abundance of inactive, bent conformation
LFA-1 with open head-piece on REP T cells (LFA-1): significant increase
Cytotoxicity of REP T cells (caspase-3 activity in T2 target cells) (T2 target cells): significantly increased
